The supplement of paper PMC10949913

Assays:
Test in all cases: area under concentration-response curve (viability) (AUC (a.u.)); higher = less active
Details in all cases: 48 h
[1] = system: NCI-H295R
Method in brief: (§1)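 Library compounds were dispensed at 11 concentrations (23 nL each) onto three adrenocortical carcinoma cell lines in 1,536-well plates. Luminescence was recorded after 48 h using CellTiter-Glo, and signals were normalised per plate to vehicle and empty-well controls. Fitted concentration-response curves of inhibitory or non-responding classes only supplied the AC50 and area under the curve.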

[2] = system: CU-ACC2
Method in brief: as §1

[3] = system: CU-ACC1
Method in brief: as §1

CCOC(=O)C/1=C(C)/NC(=S)NC1C2=CC=CC(=C2)O (centres undefined)
area under concentration-response curve [1]: 526 | area under concentration-response curve [2]: 545 | area under concentration-response curve [3]: 498

COc1cccc(Nc2ncnn3ccc(CN4CC[C@@H](N)[C@H](O)C4)c23)c1
area under concentration-response curve [1]: 552 | area under concentration-response curve [2]: 534 | area under concentration-response curve [3]: 399

CN1[C@@H]2CC(O)C[C@H]1[C@@H]1O[C@@H]12 (some centres undefined)
area under concentration-response curve [1]: 496 | area under concentration-response curve [2]: 560 | area under concentration-response curve [3]: 460

NC(=O)[C@@H](CC1CC1)[C@@H](CCC(F)(F)F)C(=O)N[C@H]2\N=C(C3=CC=CC=C3)/C4=CC=CC(=C4NC2=O)F
area under concentration-response curve [1]: 541 | area under concentration-response curve [2]: 573 | area under concentration-response curve [3]: 543

CC1=CC(=O)c2ccccc2C1=O
area under concentration-response curve [1]: 501 | area under concentration-response curve [2]: 530 | area under concentration-response curve [3]: 495

CC[C@H](/C=C/[C@@H](C)[C@H]1CC[C@H]2[C@@H]3CC=C4C[C@@H](O)CC[C@]4(C)[C@H]3CC[C@]12C)C(C)C
area under concentration-response curve [1]: 602 | area under concentration-response curve [2]: 612 | area under concentration-response curve [3]: 550

Cc1c(Cn2c(C)nc3c(C(=O)O)cc(N4CCOCC4)cc32)cccc1C(F)(F)F
area under concentration-response curve [1]: 519 | area under concentration-response curve [2]: 524 | area under concentration-response curve [3]: 444

N[C@@H](CCC(=O)O)C(=O)N[C@@H](Cc1c[nH]c2ccccc12)C(=O)O
area under concentration-response curve [1]: 519 | area under concentration-response curve [2]: 584 | area under concentration-response curve [3]: 493

CC(C)Cc1ccc([C@@H](C)C(=O)N[S+](C)(=O)[O-])cc1
area under concentration-response curve [1]: 553 | area under concentration-response curve [2]: 586 | area under concentration-response curve [3]: 492

COC/1=C/[C@@H]2[C@@H]3CC4=C(C(=C(OC)C=C4)O)[C@]2(CCN3C)CC1=O
area under concentration-response curve [1]: 479 | area under concentration-response curve [2]: 519 | area under concentration-response curve [3]: 457

CNC[C@H](O)c1ccc(O)c(O)c1
area under concentration-response curve [1]: 592 | area under concentration-response curve [2]: 608 | area under concentration-response curve [3]: 530

Cc1coc2c1C(=O)C(=O)c1c-2ccc2c1CCCC2(C)C
area under concentration-response curve [1]: 456 | area under concentration-response curve [2]: 479 | area under concentration-response curve [3]: 433

CC1(C)CCC(=C(\C1)C2=CC=C(Cl)C=C2)/CN3CCN(CC3)C4=CC(=C(C=C4)C(=O)N[S+]([O-])(=O)C5=CC=C(NCC6CCOCC6)C(=C5)[N+]([O-])=O)OC7=CN=C8[NH]C=CC8=C7
area under concentration-response curve [1]: 478 | area under concentration-response curve [2]: 573 | area under concentration-response curve [3]: 511

CC(C)C[C@@H]1NC(=O)[C@@H](C(C)C)NC(=O)[C@@H]2CCCN2C(=O)[C@@H](CC(=O)O)NC(=O)[C@@H](Cc2c[nH]c3ccccc23)NC1=O
area under concentration-response curve [1]: 550 | area under concentration-response curve [2]: 604 | area under concentration-response curve [3]: 489

CC(C)(CNC(=O)c1cccc(-c2noc(C(F)(F)F)n2)c1)c1coc(-c2ccccc2)n1
area under concentration-response curve [1]: 506 | area under concentration-response curve [2]: 585 | area under concentration-response curve [3]: 558

CCOC(=O)N1CCN(/[N+]([O-])=N/Oc2ccc([N+](=O)[O-])cc2[N+](=O)[O-])CC1
area under concentration-response curve [1]: 521 | area under concentration-response curve [2]: 644 | area under concentration-response curve [3]: 544

C[C@H]1C[C@@H]2[C@H](CC[C@@]3(C)[C@H]2CC[C@]3(OC(C)=O)C(C)=O)[C@@]\4(C)CCC(=O)\C=C14
area under concentration-response curve [1]: 557 | area under concentration-response curve [2]: 618 | area under concentration-response curve [3]: 554

CNc1nc(C)nc(N[C@H]2CCC[C@@H](C(=O)NCc3ccc(C#N)cc3C(F)(F)F)C2)n1
area under concentration-response curve [1]: 496 | area under concentration-response curve [2]: 593 | area under concentration-response curve [3]: 497

OC(=O)C1=CC=C(NC2=NC3=C(C\N=C(/C4=CC(=CC=C34)Cl)C5=C(F)C=CC=C5F)C=N2)C=C1
area under concentration-response curve [1]: 517 | area under concentration-response curve [2]: 559 | area under concentration-response curve [3]: 504

CCCCOC(=O)N[S+](=O)([O-])c1sc(CC(C)C)cc1-c1ccc(Cn2ccnc2)cc1
area under concentration-response curve [1]: 460 | area under concentration-response curve [2]: 412 | area under concentration-response curve [3]: 357

CO[C@@H]1[C@H](N(C)C(=O)c2ccccc2)C[C@H]2O[C@]1(C)n1c3ccccc3c3c4c(c5c6ccccc6n2c5c31)C(=O)NC4
area under concentration-response curve [1]: 492 | area under concentration-response curve [2]: 476 | area under concentration-response curve [3]: 522

O=C(NC1CCOCC1)c1ccc(-c2cc(-c3c[nH]nc3-c3ccccn3)ccn2)cc1
area under concentration-response curve [1]: 453 | area under concentration-response curve [2]: 497 | area under concentration-response curve [3]: 429

Nc1nccn2c1c(-c1cc3cccc(Cl)c3[nH]1)nc2[C@H]1CC[C@H](C(=O)O)CC1
area under concentration-response curve [1]: 536 | area under concentration-response curve [2]: 589 | area under concentration-response curve [3]: 498

C[S+](=O)([O-])OCCCCO[S+](C)(=O)[O-]
area under concentration-response curve [1]: 507 | area under concentration-response curve [2]: 514 | area under concentration-response curve [3]: 463

N=C(N)NC(=N)NCCc1ccccc1
area under concentration-response curve [1]: 573 | area under concentration-response curve [2]: 626 | area under concentration-response curve [3]: 525

CC1=C(/C=C/C(C)=C/C=C/C(C)=C/C=C/C=C(C)/C=C/C=C(C)/C=C/C2=C(C)CCCC2(C)C)C(C)(C)CCC1
area under concentration-response curve [1]: 574 | area under concentration-response curve [2]: 617 | area under concentration-response curve [3]: 544

COc1ccc2[nH]c(C(=O)N3CCC(CC(C)(C)O)CC3)cc2c1
area under concentration-response curve [1]: 572 | area under concentration-response curve [2]: 609 | area under concentration-response curve [3]: 484

COc1cc[nH]c2ncc(C(=O)C(=O)N3CCN(C(=O)c4ccccc4)C[C@H]3C)c1-2
area under concentration-response curve [1]: 560 | area under concentration-response curve [2]: 632 | area under concentration-response curve [3]: 545

O=[N+]([O-])c1cnc(Sc2nnc(O)n2-c2ccc3c(c2)OCCO3)s1
area under concentration-response curve [1]: 517 | area under concentration-response curve [2]: 611 | area under concentration-response curve [3]: 529

CC(=O)Nc1ccc(O)cc1
area under concentration-response curve [1]: 445 | area under concentration-response curve [2]: 467 | area under concentration-response curve [3]: 348

Cn1cc(-c2ccc(-c3cncc(Cl)c3N3CCC4(CCNC4=O)CC3)cc2)cn1
area under concentration-response curve [1]: 514 | area under concentration-response curve [2]: 622 | area under concentration-response curve [3]: 521

Cc1ccc(Nc2nccc(N(C)c3ccc4c(C)n(C)nc4c3)n2)cc1[S+](N)(=O)[O-]
area under concentration-response curve [1]: 570 | area under concentration-response curve [2]: 620 | area under concentration-response curve [3]: 516

C#CCC(Cc1cnc2nc(N)nc(N)c2n1)c1ccc(C(=O)N[C@@H](CCC(=O)O)C(=O)O)cc1 (some centres undefined)
area under concentration-response curve [1]: 546 | area under concentration-response curve [2]: 509 | area under concentration-response curve [3]: 552

COc1ccc([S+](=O)([O-])N[C@@H](CNc2nc(C)nc(N3CCC(c4ccc5c(n4)NCCC5)CC3)c2C)C(=O)O)cc1
area under concentration-response curve [1]: 589 | area under concentration-response curve [2]: 441 | area under concentration-response curve [3]: 554

C[C@@H](c1ccc2nccn2c1)n1nnc2ncc(-c3cnn(C)c3)nc21
area under concentration-response curve [1]: 512 | area under concentration-response curve [2]: 582 | area under concentration-response curve [3]: 481

Cc1nc(C)c(CN2CCN(C(c3ccc(F)cc3)c3ccc(F)cc3)CC2)nc1C
area under concentration-response curve [1]: 471 | area under concentration-response curve [2]: 563 | area under concentration-response curve [3]: 481

Cc1ccc(/C=N/NC(=O)c2ccccc2Oc2ccccc2)o1
area under concentration-response curve [1]: 421 | area under concentration-response curve [2]: 491 | area under concentration-response curve [3]: 440

CCC[C@@H]1C[C@@H](C(=O)N[C@@H]([C@H]2O[C@H](SC)[C@H](O)[C@@H](O)[C@H]2O)[C@H](C)Cl)N(C)C1
area under concentration-response curve [1]: 541 | area under concentration-response curve [2]: 458 | area under concentration-response curve [3]: 527
